In data set [1] the test system is 16 HPV-positive HNSCC and cervical squamous cancer cell lines. The data set is described as follows: High-throughput drug screen (HTDS), cell death by AOC_LD, HPV-positive cell lines. The format is cell-based. As to conditions: for HPV positive Resistant (number of cell lines): resistant = AOC_LD 0; for HPV positive Sensitive (number of cell lines): sensitive = AOC_LD greater than 0. The protocol:
(§1) The concordance correlation coefficient was computed to assess the reproducibility of the normalized growth rates of the 2 replicates. […] A chi-square test was applied to compare drug classification and the cluster membership. The Fisher exact test was applied to compare mutations status (wild-type and mutant) and drugs' response data (sensitive and resistant).
(§2) The effects of 864 unique drugs from 51 classes was tested in 16 HPV-positive and 17 HPV-negative HNSCC and cervical squamous cancer cell lines (Table 2) that were characterized previously (Kaiu, et al., Oncotarget 2017; 8(49):86369-83).

The test system of data set [2] is 17 HPV-negative HNSCC and cervical squamous cancer cell lines. The experiment in a line: High-throughput drug screen (HTDS), cell death by AOC_LD, HPV-negative cell lines. As to conditions: for HPV negative Resistant (number of cell lines): resistant = AOC_LD 0; for HPV negative Sensitive (number of cell lines): sensitive = AOC_LD greater than 0. The format is cell-based. The protocol: as §1, §2

The test system of data set [3] is 16 HPV-positive and 17 HPV-negative HNSCC and cervical squamous cancer cell lines. The experiment in a line: High-throughput drug screen (HTDS), whole panel, comparison by HPV status. The format is cell-based. As to conditions: for odds ratio: sensitivity in HPV-positive vs HPV-negative cell lines; for efficacy in HPV-positive vs HPV-negative cell lines: AOC_LD as a dichotomous variable. The protocol: as §1, §2

In another data set the test system is SiHa. As to conditions: cited from earlier work.
Another data set relates to Vu147T. As to conditions: cited from earlier work.
The subject of a further data set is CaSki. As to conditions: cited from earlier work.
A further data set deals with UPCI-SCC-090. As to conditions: cited from earlier work.
The conditions of data set [4]: HNSCC patients who received 100 mg/m^2; read-out: plasma Cmax; cited from earlier work.
Another data set has as its system ME180. As to conditions: cited from earlier work.
Another data set relates to UDSCC2. As to conditions: cited from earlier work.

What is called IC50 is the concentration that inhibits the measured activity by half. As a reminder, the Cmax is the highest concentration seen after dosing.

Turning to `COC(=O)c1ccc2c(c1)NC(=O)/C2=C(\Nc1ccc(N(C)C(=O)CN2CCN(C)CC2)cc1)c1ccccc1` [NINTEDANIB], in data set [1], the “HPV positive Resistant (number of cell lines)” value (shortened to “HPV positive Resistant”) stood at 11 and the “HPV positive Sensitive (number of cell lines)” value (from here on “HPV positive Sensitive”) is given as 5. For the same compound, in [2], the “HPV negative Resistant (number of cell lines)” value (“HPV negative Resistant” for short) came out at 17 and the “HPV negative Sensitive (number of cell lines)” value (“HPV negative Sensitive” for short) amounted to 0. The odds ratio entry in [3] is “Inf”.
For `Nc1nc(Nc2ccc(S(N)(=O)=O)cc2)nn1C(=O)c1c(F)cccc1F` [JNJ7706621], in data set [1], the “HPV positive Resistant” value was determined as 4 and the “HPV positive Sensitive” value is 12. Further, in data set [2], the “HPV negative Resistant” value is given as 11 and the “HPV negative Sensitive” value is 6. Besides, in [3], the “efficacy in HPV-positive vs HPV-negative cell lines” value is listed as “more effective in HPV-positive than in HPV-negative cell lines”.
On the same counts, the results for `CCn1cc(-c2ccnc3[nH]c(-c4cccc(CN(C)C)c4)cc23)c(-c2ccc(NC(=O)N(C)C)cc2)n1` [GSK1070916] are 4, 12, 12, 5 and “tended to be more effective in HPV-positive cell lines”.
With BLEOMYCIN, in [1], the “HPV positive Resistant” value stood at 6 and the “HPV positive Sensitive” value is given as 10. Besides, in [2], the “HPV negative Resistant” value was found to be 13 and the “HPV negative Sensitive” value is given as 4. In addition, in data set [3], the odds ratio is 5.12.
For the compound `Cc1nc(N)sc1-c1ccnc(Nc2ccc(N3CCOCC3)cc2)n1` [CYC116], in [1], the “HPV positive Resistant” value is listed as 7 and the “HPV positive Sensitive” value is on record as 9. Besides, in data set [2], the “HPV negative Resistant” value turned out to be 15 and the “HPV negative Sensitive” value was found to be 2. Moreover, in data set [3], the “efficacy in HPV-positive vs HPV-negative cell lines” value is recorded as “tended to be more effective in HPV-positive cell lines”.
As for WYE354, in data set [1], the “HPV positive Resistant” value turned out to be 10 and the “HPV positive Sensitive” value is reported as 6. Moreover, in data set [2], the “HPV negative Resistant” value is on record as 16 and the “HPV negative Sensitive” value turned out to be 1. Further, the odds ratio in data set [3] came out at 8.98.
As for `Cc1cc(Nc2cc(N3CCN(C)CC3)nc(Sc3ccc(NC(=O)C4CC4)cc3)n2)[nH]n1` [TOZASERTIB, tozasertib], in data set [1], the “HPV positive Resistant” value is reported as 7 and the “HPV positive Sensitive” value stood at 9. In addition, in data set [2], the “HPV negative Resistant” value is given as 15 and the “HPV negative Sensitive” value is reported as 2. Besides, in data set [3], the “efficacy in HPV-positive vs HPV-negative cell lines” value is given as “tended to be more effective in HPV-positive cell lines”.
On the same counts, the results for `O=C(Nc1cccc(Cl)c1)Nc1ncc(CCNc2ncnc3ccsc23)s1` [SNS314] are 8, 8, 15, 2 and “tended to be more effective in HPV-positive cell lines”.
As to `COc1ccc(-c2ccc3c(N4CCOC[C@@H]4C)nc(N4CCOC[C@@H]4C)nc3n2)cc1CO` [AZD8055], in data set [1], the “HPV positive Resistant” value is 11 and the “HPV positive Sensitive” value is reported as 5. Also, in [2], the “HPV negative Resistant” value is given as 17 and the “HPV negative Sensitive” value is on record as 0. For the same compound, the odds ratio entry in data set [3] is “Inf”.
In the case of `CC(C)C[C@H](NC(=O)[C@H](CCc1ccccc1)NC(=O)CN1CCOCC1)C(=O)N[C@@H](Cc1ccccc1)C(=O)N[C@@H](CC(C)C)C(=O)[C@@]1(C)CO1` [CARFILZOMIB], in data set [1], the “HPV positive Resistant” value was found to be 0 and the “HPV positive Sensitive” value turned out to be 16. In [2], the “HPV negative Resistant” value came out at 5 and the “HPV negative Sensitive” value is 12. In data set [3], the odds ratio entry is “Inf”.
On the same counts, the results for `Clc1ccc(C2(c3ccc(-c4cn[nH]c4)cc3)CCNCC2)cc1` [AT7867] are 12, 4, 17, 0 and “Inf”.
For `CCCCCCOC(=O)[C@]1(O)C[C@@H]2O[C@@]1(C)n1c3ccccc3c3c4c(c5c6ccccc6n2c5c31)C(=O)NC4` [KT5720], in [1], the “HPV positive Resistant” value is 12 and the “HPV positive Sensitive” value was 4. Moreover, in [2], the “HPV negative Resistant” value came out at 17 and the “HPV negative Sensitive” value is recorded as 0. Further, in [3], the odds ratio result is “Inf”.
On to `CN(C)c1ccc(-c2nc3ncc(Cl)c(N4CCN(CC(=O)Nc5nccs5)CC4)c3[nH]2)cc1` [CCT129202], for which the “efficacy in HPV-positive vs HPV-negative cell lines” value in [3] is listed as “tended to be more effective in HPV-positive cell lines”.
Take `N.N.[Cl][Pt][Cl]` [cisplatin]: the IC50 in the data set with SiHa is 28 µM; in the data set with Vu147T, 11.2 µM; in the data set with CaSki, 15 µM; in the data set with UPCI-SCC-090, 11.1 µM; in the data set on ME180, 12 µM; with UDSCC2 it was 18 µM. In data set [4], the Cmax was 11 µM.
Turning to `CC(=O)NCC(=O)N1[C@@H]2CC[C@H]1c1ccc(Nc3ncc(C(F)(F)F)c(NC4CCC4)n3)cc12` [PF03814735], in data set [1], the “HPV positive Resistant” value is reported as 8 and the “HPV positive Sensitive” value is 8. Moreover, in data set [2], the “HPV negative Resistant” value amounted to 15 and the “HPV negative Sensitive” value is recorded as 2. Further, in [3], the “efficacy in HPV-positive vs HPV-negative cell lines” value is reported as “tended to be more effective in HPV-positive cell lines” and the odds ratio is 7.02.
On to `COc1cc2c(Nc3ccc(NC(=O)c4ccccc4)cc3)ncnc2cc1OCCCN1CCOCC1` [ZM447439], for which, in data set [1], the “HPV positive Resistant” value amounted to 6 and the “HPV positive Sensitive” value amounted to 10. Besides, in data set [2], the “HPV negative Resistant” value was 14 and the “HPV negative Sensitive” value came out at 3. For the same compound, in [3], the “efficacy in HPV-positive vs HPV-negative cell lines” value is on record as “tended to be more effective in HPV-positive cell lines” and the odds ratio is reported as 7.24.
With `CO[C@@H](C(=O)N1Cc2n[nH]c(NC(=O)c3ccc(N4CCN(C)CC4)cc3)c2C1)c1ccccc1` [danusertib], the “efficacy in HPV-positive vs HPV-negative cell lines” value in data set [3] is given as “tended to be more effective in HPV-positive cell lines”.
On to `CO[C@H]1C[C@@H]2CC[C@@H](C)[C@@](O)(O2)C(=O)C(=O)N2CCCC[C@H]2C(=O)O[C@H]([C@H](C)C[C@@H]2CC[C@@H](OCCO)[C@H](OC)C2)CC(=O)[C@H](C)/C=C(\C)[C@@H](O)[C@@H](OC)C(=O)[C@H](C)C[C@H](C)/C=C/C=C/C=C/1C` [everolimus], for which the cell death entry in [3] (at concentrations known to inhibit mTOR) was “caused cell death only in a single cell line”.
Regarding `O=C(O)c1ccc(Nc2ncc3c(n2)-c2ccc(Cl)cc2C(c2c(F)cccc2F)=NC3)cc1` [MLN8054], the “efficacy in HPV-positive vs HPV-negative cell lines” value in data set [3] is given as “tended to be more effective in HPV-positive cell lines”.
As for `O=C(Nc1cccc(Nc2ncc(Br)c(NCCc3cnc[nH]3)n2)c1)N1CCCC1` [BX912], in data set [1], the “HPV positive Resistant” value was 8 and the “HPV positive Sensitive” value was determined as 8. Also, in data set [2], the “HPV negative Resistant” value turned out to be 16 and the “HPV negative Sensitive” value is 1. For the same compound, in [3], the odds ratio turned out to be 14.66.
